These compounds were tested on human platelet rich plasma (assay: Inhibition of human platelet aggregation, 96-well assay). Details: ADP-induced aggregation, human platelet rich plasma, 96-well plates, AUC of absorbance over 20 minutes.
Format: cell-based
Experimental: Inhibition of Human Platelet Aggregation
Alternatively to a binding assay which measures a compound's ability to bind to the P2Y12 receptor, the effect on cellular function was also determined. This ability of the compound was evaluated in two platelet aggregation assays: in 96-well plates and with the “Born”-method using single cuvettes.
Whole blood was collected from healthy volunteers using 20 ml syringes containing 2 ml of ACD-A Aqua-Citrat-Dextrose-A, Fresenius). The anticoagulated whole blood was transferred into 15 ml polypropylene conical tubes (10 ml per tube). The tubes were centrifuged for 15 minutes at 150×g at RT without using the centrifuge brake. This procedure leads to a pellet of cellular components and a supernatant of platelet rich plasma (PRP). The PRP layer was collected from each tube and pooled for each donor. To avoid carry over of cellular components following centrifugation, approximately 5 ml of PRP was left in the tube. The platelet concentration was determined using a Coulter Counter.
The 15 ml tubes containing the pellet of cellular components were centrifuged again for 10 minutes at 1940×g. This pelleted out most particulate blood constituents remaining, leaving a layer of Platelet Poor Plasma (PPP). The PPP was collected for each donor. The PRP layer, previously set aside, was diluted with PPP to a final concentration of approximately 3×E8 platelets/ml with the PPP.
The human platelet aggregation assay is performed in 96-well plates using a microtiter plate reader (SpectraMax Plus 384 with SoftMax Pro software from Molecular Devices). In the plate 15 μl of test compound at 10× final concentration in NaCl is mixed with 120 μl fresh PRP and incubated for 5 minutes. Following that incubation period, 15 μl of 40 μM ADP is added to the reaction mix. This addition of ADP is sufficient to induce aggregation in the absence of an inhibitor. The plates are then transferred to the microplate reader and aggregation is measured over 20 minutes. The instrument settings include:
Absorbance at 650 nm, run time 20 minutes with readings in 1-minute intervals and 50 seconds shaking between readings all performed at 37° C.

SMILES	IC50 [nM]
CCOC(=O)N1CCN(C(=O)[C@H](CCC(=O)O)NC(=O)c2cc(OCC(=O)N3CC(F)(F)C[C@H]3C(=O)NC3CC3)n(-c3ccccc3)n2)CC1 [Example 165, 4-[(S)-4-Carboxy-2-({5-[2-((S)-2-cycloproylcarbamoyl-4,4-difluoro-pyrrolidin-1-yl)-2-oxo-ethoxy]-1-phenyl-1H-pyrazole-3-carbonyl}-amino)-butyryl]-piperazine-1-carboxylic acid ethyl ester]	340
CCOC(=O)N1CCN(C(=O)[C@H](CCC(=O)O)NC(=O)c2cc(OCC(=O)N3CC(F)(F)C[C@H]3C(=O)NCC3CC3)n(-c3ccccc3)n2)CC1 [Example 166, 4-[(S)-4-Carboxy-2-({5-[2-((S)-2-(cycloproylmethyl-carbamoyl)-4,4-difluoro-pyrrolidin-1-yl)-2-oxo-ethoxy]-1-phenyl-1H-pyrazole-3-carbonyl}-amino)-butyryl]-piperazine-1-carboxylic acid ethyl ester]	80

Same assay, conditions: Homo sapiens, Platelet, 20 min

IC50 [nM]	SMILES
450	CCOC(=O)N1CCN(C(=O)[C@H](CCC(=O)O)NC(=O)c2cc(OCC(=O)N3CCC[C@H]3c3nc(C4CC4)no3)n(-c3ccccc3)n2)CC1 [Example 180, 4-{(S)-4-Carboxy-2-[(5-{2-[(S)-2-(3-cyclopropyl-[1,2,4]oxadiazol-5-yl)-pyrrolidin-1-yl]-2-oxo-ethoxy}-1-phenyl-1H-pyrazole-3-carbonyl)-amino]-butyryl}-piperazine-1-carboxylic acid ethyl ester]
180	CCCOC(=O)N1CCN(C(=O)[C@H](CCC(=O)OC)NC(=O)c2cc(OCC(=O)N3CCC[C@H]3C(=O)NC3CCC3)n(-c3ccccc3)n2)CC1 [Example 190, 4-[(S)-2-({5-[2-((S)-2-Cyclobutylcarbamoyl-pyrrolidin-1-yl)-2-oxo-ethoxy]-1-phenyl-1H-pyrazole-3-carbonyl}-amino)-4-methoxycarbonyl-butyryl]-piperazine-1-carboxylic acid propyl ester]
460	C[C@H](NC(=O)c1cc(OCC(=O)N2CCC[C@H]2C(=O)NC2CCC2)n(-c2ccccc2)n1)C(=O)N1CCN(C(=O)OC2CCC2)CC1 [Example 193, 4-[(S)-2-({5-[2-((S)-2-Cyclobutylcarbamoyl-pyrrolidin-1-yl)-2-oxo-ethoxy]-1-phenyl-1H-pyrazole-3-carbonyl}-amino)-propionyl]-piperazine-1-carboxylic acid cyclobutyl ester]
420	CCOC(=O)N1CCN(C(=O)[C@H](CCC(=O)OCCCOC)NC(=O)c2cc(OCC(=O)N3CCC[C@H]3C(=O)NC3CCC3)n(-c3ccccc3)n2)CC1 [Example 200, 4-[(S)-2-({5-[2-((S)-2-Cyclobutylcarbamoyl-pyrrolidin-1-yl)-2-oxo-ethoxy]-1-phenyl-1H-pyrazole-3-carbonyl}-amino)-4-(3-methoxy-propoxycarbonyl)-butyryl]-piperazine-1-carboxylic acid ethyl ester]
570	CCOC(=O)N1CCN(C(=O)[C@H](CCC(=O)OCCN2CCOCC2)NC(=O)c2cc(OCC(=O)N3CCC[C@H]3C(=O)NC3CCC3)n(-c3ccccc3)n2)CC1 [Example 201, 4-[(S)-2-({5-[2-((S)-2-Cyclobutylcarbamoyl-pyrrolidin-1-yl)-2-oxo-ethoxy]-1-phenyl-1H-pyrazole-3-carbonyl}-amino)-4-(2-morpholin-4-yl-ethoxycarbonyl)-butyryl]-piperazine-1-carboxylic acid ethyl ester]
840	CCOC(=O)N1CCN(C(=O)[C@H](CCC(=O)OCC2CCOC2)NC(=O)c2cc(OCC(=O)N3CCC[C@H]3C(=O)NC3CCC3)n(-c3ccccc3)n2)CC1 (stereo partly drawn) [Example 202, 4-[(S)-2-({5-[2-((S)-2-Cyclobutylcarbamoyl-pyrrolidin-1-yl)-2-oxo-ethoxy]-1-phenyl-1H-pyrazole-3-carbonyl}-amino)-4-(tetrahydro-furan-3-ylmethoxycarbonyl)-butyryl]piperazine-1-carboxylic acid ethyl ester]
490	CCOC(=O)N1CCN(C(=O)[C@H](CCC(=O)OCC2(C)COC2)NC(=O)c2cc(OCC(=O)N3CCC[C@H]3C(=O)NC3CCC3)n(-c3ccccc3)n2)CC1 [Example 203, 4-[(S)-2-({5-[2-((S)-2-Cyclobutylcarbamoyl-pyrrolidin-1-yl)-2-oxo-ethoxy]-1-phenyl-1H-pyrazole-3-carbonyl}-amino)-4-(3-methyl-oxetan-3-ylmethoxycarbonyl)-butyryl]-piperazine-1-carboxylic acid ethyl ester]
720	CCOC(=O)N1CCN(C(=O)[C@H](CCC(=O)OCC2(CC)COC2)NC(=O)c2cc(OCC(=O)N3CCC[C@H]3C(=O)NC3CCC3)n(-c3ccccc3)n2)CC1 [Example 204, 4-[(S)-2-({5-[2-((S)-2-Cyclobutylcarbamoyl-pyrrolidin-1-yl)-2-oxo-ethoxy]-1-phenyl-1H-pyrazole-3-carbonyl}-amino)-4-(3-ethyl-oxetan-3-ylmethoxycarbonyl)-butyryl]-piperazine-1-carboxylic acid ethyl ester]
950	CCOC(=O)N1CCN(C(=O)[C@H](CC(C)C)NC(=O)c2cc(OCC(=O)N3CCC[C@H]3C(=O)NC3CCC3)n(-c3ccccc3)n2)CC1 [Example 215, 4-[(S)-2-({5-[2-((S)-2-Cyclobutylcarbamoyl-pyrrolidin-1-yl)-2-oxo-ethoxy]-1-phenyl-1H-pyrazole-3-carbonyl}-amino)-4-methyl-pentanoyl]-piperazine-1-carboxylic acid ethyl ester]
800	O=C(NCC(=O)N1CCN(C(=O)[C@H]2C[C@@H]2F)CC1)c1cc(OCC(=O)N2CCC[C@H]2C(=O)NC2CCC2)n(-c2ccccc2)n1 [Example 245, 5-[2-((S)-2-Cyclobutylcarbamoyl-pyrrolidin-1-yl)-2-oxo-ethoxy]-1-phenyl-1H-pyrazole-3-carboxylic acid {2-[4-((1R,2S)-2-fluoro-cyclopropanecarbonyl)-piperazin-1-yl]-2-oxo-ethyl}-amide]
560	O=C(NCC(=O)N1CCN(C(=O)[C@@H]2C[C@H]2c2ccccc2)CC1)c1cc(OCC(=O)N2CCC[C@H]2C(=O)NC2CCC2)n(-c2ccccc2)n1 [Example 246, 5-[2-((S)-2-Cyclobutylcarbamoyl-pyrrolidin-1-yl)-2-oxo-ethoxy]-1-phenyl-1H-pyrazole-3-carboxylic acid {2-oxo-2-[4-((1R,2R)-2-phenyl-cyclopropanecarbonyl)-piperazin-1-yl]-ethyl}-amide]
240	CCOCCOC(=O)N1CCN(C(=O)CNC(=O)c2cc(OCC(=O)N3CCC[C@H]3C(=O)NC3CCC3)n(-c3ccccc3)n2)CC1 [Example 257, 4-[2-({5-[2-((S)-2-Cyclobutylcarbamoyl-pyrrolidin-1-yl)-2-oxo-ethoxy]-1-phenyl-1H-pyrazole-3-carbonyl}-amino)-acetyl]-piperazine-1-carboxylic acid 2-ethoxy-ethyl ester]

SMILES	IC50 [nM]
CCOC(=O)N1CCN(C(=O)[C@H](CCC(=O)OCCC(C)OC)NC(=O)c2cc(OCC(=O)N3CCC[C@H]3C(=O)NC3CCC3)n(-c3ccccc3)n2)CC1 (stereo partly drawn) [Example 205, 4-[(S)-2-({5-[2-((S)-2-Cyclobutylcarbamoyl-pyrrolidin-1-yl)-2-oxo-ethoxy]-1-phenyl-1H-pyrazole-3-carbonyl}-amino)-4-(3-methoxy-butoxycarbonyl)-butyryl]-piperazine-1-carboxylic acid ethyl ester]	460

Source: US8426420B2, “Heterocyclic pyrazole-carboxamidesas P2Y12 antagonists” (Sanofi, priority 2007, dated 2013)
